The text below walks through data of patent US20110256121A1, “METHODS AND KITS FOR DIAGNOSING OR MONITORING AUTOIMMUNE AND CHRONIC INFLAMMATORY DISEASES” (THE REGENTS OF THE UNIVERSITY OF MICHIGAN, priority 2008, published 2011).

For experiment [1], the system named is CD70-dependent B cell help. Briefly: T cell and B cell costimulation assay with PWM, IgG ELISA. Particulars: 8 days, P<0.05. Format: cell-based, human. How it is done: T cell and B cell costimulation assays. E-rosette-purified T cells were stimulated for 16 hours with PHA and then treated with the indicated chemicals for an additional 72 hours as described above. Where indicated, T cell subsets were isolated by negative selection using magnetic beads (Miltenyi). B cells (1-4×10^5) enriched by negative selection using magnetic beads (Miltenyi) and assessed to be 70-85% pure using PE-conjugated anti-human CD21 (PharMingen), were added to washed, drug-treated autologous T cells, at T cell to B cell ratios of 4:1, 2:1, 1:1, 1:2, and 1:4. Where indicated, 0.625 μg/ml of PWM (Aldrich) was added. The cells were cultured in RPMI 1640/10% FBS/penicillin/streptomycin for 8 days in 96-well roundbottomed plates (Costar) containing a 200 μl total volume (performed in duplicate). Cells were supplemented with 50 μl of medium on day 4. […]
(§1) IgG enzyme-linked immunosorbent assays (ELISAs). […] Serial dilutions of purified human IgG (Sigma) were used for quantitation. […] The plates were read at 405 nm using a SpectraMax spectrophotometer (Molecular Devices). […]
Since CD70 participates in T cell-dependent B cell stimulation (See e.g., Kobata et al., Proc Natl Acad Sci USA 92, 11249 (1995)), the effects of DNA methylation inhibitors on CD70-dependent B cell help were examined. […] Eight days later, total IgG in the supernatants was measured by ELISA. […]

Experiment [2] has as its system CD70-dependent B cell help. Put plainly: TT48E T cell clone and autologous B cell costimulation without PWM, IgG ELISA. It counts as cell-based, human. Particulars: P<0.05. How it is done:
T cell and B cell costimulation assays. E-rosette-purified T cells were stimulated for 16 hours with PHA and then treated with the indicated chemicals for an additional 72 hours as described above. Where indicated, T cell subsets were isolated by negative selection using magnetic beads (Miltenyi). B cells (1-4×10^5) enriched by negative selection using magnetic beads (Miltenyi) and assessed to be 70-85% pure using PE-conjugated anti-human CD21 (PharMingen), were added to washed, drug-treated autologous T cells, at T cell to B cell ratios of 4:1, 2:1, 1:1, 1:2, and 1:4. Where indicated, 0.625 μg/ml of PWM (Aldrich) was added. The cells were cultured in RPMI 1640/10% FBS/penicillin/streptomycin for 8 days in 96-well roundbottomed plates (Costar) containing a 200 μl total volume (performed in duplicate). Cells were supplemented with 50 μl of medium on day 4. Where indicated, 1 μg/ml of anti-CD70 monoclonal antibody (HNE51) (Dako) was added to the cultures. TT48E cells were similarly stimulated with PHA (1 μg/ml) for 18 hours, treated with the indicated drugs for 3 days, then similarly cultured with autologous B cells for 8 days. […]
as §1

A further experiment has as its system CD70 promoter. Put plainly: Bisulfite sequencing of the CD70 promoter in CD4+ T cells. Particulars: anti-CD3 and anti-CD28 stimulated CD4+ T cells vs stimulated untreated controls. It counts as cell-based, human. How it is done:
In other studies, T cells were isolated by negative selection using magnetic beads and instructions provided by the manufacturer (Pan T cell Isolation Kit, Miltenyi), and the CD4+ or CD8+ subset was similarly isolated by magnetic cell sorting. Jurkat cells (E6-1) were cultured as previously described (See, e.g., Cornacchia et al., J Immunol 140:2197 (1998)). Purified human CD4+ T cells were first stimulated with plate bound anti-CD3 and soluble anti-CD28. Briefly, 24 well plates were coated with 300 μl of anti-CD3 (10 μg/ml in PBS—SouthernBiotech) 18 hours 4° C., washed, then 2×10^6 purified T cells were added to the wells in 2 ml RPMI 1640/10% FCS containing 2 μg/ml anti-CD28 (SouthernBiotech). The plates were incubated 37° C. in a humidified atmosphere containing 5% CO2 for 18-24 hours, then treated with 5 μm 5-azaC (Aldrich), 50 μm Pca (Sigma), 20 μm Hyd (Aldrich), 40 μm UO126 (Promega) or 25 μm PD98059 (Promega), and cultured for 3 additional days as described (See, e.g., Oelke et al., Arthritis Rheum 50:1850 (2004)).
Bisulfite sequencing. The putative CD70 promoter was identified using the published CD70 cDNA sequence and Tfsitescan software. Deoxycytosine (dC) and deoxymethylcytosine (d^mC) bases in the gene promoter and 5′ flanking sequences were identified by bisulfite treatment of purified DNA followed by nested PCR amplification of 3 sequential fragments to span the entire region. The primers were designed to avoid CG pairs and to account for the conversion of dC to dU by the bisulfite. EcoRI sites were added to the forward primers, and XbaI to the reverse, to facilitate cloning. The amplified fragments were then cloned into PBS+, and 5 clones sequenced for each fragment. The primers used were: […]
The effect of lupus and DNA methylation inhibitors on a regulatory element in the CD70 promoter was examined. DNA was isolated from the CD4+ T cells of 7 healthy individuals or 6 lupus patients, bisulfite treated, the region from −466-−515, containing 6 CG pairs was amplified by PCR, and 5 fragments sequenced from each individual. The average methylation status of the 6 CG pairs for healthy versus lupus individuals is shown (FIG. 8, NI and Lupus, respectively). CD4+ T cells from 5 individuals were also stimulated with PHA, treated with the irreversible DNA methyltransferase inhibitor 5-azacytidine (5-azaC), and the methylation status of the 6 CG pairs similarly analyzed from the 25 fragments sequenced (FIG. 8, 5-azaC). […] Results are presented as the mean±SEM of the average methylation of the 6 CG pairs, measured from the 10-35 determinations/group.
The effects of the DNA methylation inhibitors on the methylation status of this region were then compared. […] Again, 5 cloned fragments were sequenced from each control, for a total of 35 determinations per CG pair. […] FIG. 14 compares the average methylation for the 10 CG pairs (−515 to −423) in the T cells treated with DNA methylation inhibitors relative to stimulated, untreated controls.

The subject of another experiment is CD70 mRNA. To be noted: treated vs untreated T cells, real time RT-PCR.

For the molecule `N#CC(=C(/N)Sc1ccccc1N)/C(C#N)=C(\N)Sc1ccccc1N` [U0126], the “IgG secreted by B cells cultured with drug-treated T cells vs untreated T cells” value in experiment [1] is given as “secreted greater amounts of IgG”. Besides, the “IgG produced by B cells cultured with drug-treated TT48E vs untreated T cells” value in experiment [2] is on record as “produce greater amounts of IgG”. For the same molecule, in the experiment on CD70 promoter, the “methylation of the 10 CG pairs between −515 and −423 of the CD70 promoter” value is listed as “appears to demethylate”. In the experiment on CD70 mRNA, the “CD70 mRNA relative to beta-actin” value is “increased the expression of CD70 mRNA”.

On to `Nc1ncn([C@@H]2O[C@H](CO)[C@@H](O)[C@H]2O)c(=O)n1` [5-azaC, 5-azacytidine], for which, in experiment [1], the “IgG secreted by B cells cultured with drug-treated T cells vs untreated T cells” value is given as “secreted greater amounts of IgG”. Besides, the “IgG produced by B cells cultured with drug-treated TT48E vs untreated T cells” value in experiment [2] is “produce greater amounts of IgG”. Moreover, the “methylation of the 10 CG pairs between −515 and −423 of the CD70 promoter” value in the experiment on CD70 promoter is given as “hypomethylated compared to controls”. Besides, the “CD70 mRNA relative to beta-actin” value with CD70 mRNA is “increased the expression of CD70 mRNA”.
